Measurements published in US9012507B2, “Lipid-lowering antidiabetic agent” (Thetis Pharmaceuticals LLC, priority 2011, dated 2015).

Legend:
physchem = assay: physchem
Description: Measurement of the water solubility of the test compounds is accomplished by using methods well known to those skilled in the art. […] The total volume of the solution is measured. […] This is a clear indication of an unexpectedly high degree of bioavailability of the compositions of the invention. Highly water soluble medicinal preparations, when administered orally, result in efficient absorption of such preparations from the gastrointestinal tract into systemic circulation. Such preparations permit rapid absorption into the blood stream resulting in a high concentration of the active agent in the blood. Furthermore, water soluble preparations are especially suitable for parenteral administration, for example, intravenous administration.

[1] = Air and light sensitivity observed on isolation and storage; type: physicochemical; details: isolated solid; therefore stored in an amber vial under nitrogen
Description: The reaction flask was covered in foil to protect it from light. After stirring for 1 h at room temperature, the mixture was chilled to 0° C. for 1 h, and then filtered under an atmosphere of nitrogen. The solid was washed with 50 mL ice-cold acetonitrile and then quickly transferred to a foil-covered round bottom flask and placed under high vac.

CC/C=C\C/C=C\C/C=C\C/C=C\C/C=C\CCCC(=O)O [EPA, (5Z,8Z,11Z,14Z,17Z)-eicosa-5,8,11,14,17-pentaenoic acid, reference compound]
solubility (physchem; water, thermodynamic from solid): < 200 µg/mL

CC/C=C\C/C=C\C/C=C\C/C=C\C/C=C\CCCC(=O)O.CN(C)C(=N)NC(=N)N [Example 1, {[Amino(imino)methyl]amino}(dimethylamino)methaniminium (5Z,8Z,11Z,14Z,17Z)-eicosa-5,8,11,14,17-pentaenoate]
times more soluble in water than EPA (physchem; ratio of water solubility versus EPA itself): ≥ 250 times | sensitivity to air and light [1]: air and light sensitive
